Measured values: PubChem BioAssay AID1963448 (Molecular Pharmacology Branch, DTP, NCI, 2024)

System: 616215-338-R-J1-PDC complex spheroid growth, % test/control
Test: Anticancer human tumor 616215-338-R-J1-PDC patient-derived colon adenocarcinoma cell line growth inhibition [Asc]
Details: for IC50: curve of first compound; for viability, T/C: stronger effect = lower value
Outline: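 Stromal components (HUVEC and hMSC) are co-assembled with the cancer cells into multicellular spheroids. Drugs are then added singly or paired, at concentrations falling by half-log increments from a clinically achievable maximum, capped at 10 microM without known Cmax.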
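Further: spheroids exposed to agents for seven days before readout.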
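Wherever viability, T/C is given: 100% = DMSO vehicle control viability.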

IC50 (second compound 0.00316 µM): 87.4 nM
IC50 (second compound 0.01 µM): 86.5 nM
IC50 (second compound 0.0316 µM): 175 nM
IC50 (second compound 0.1 µM): 93.1 nM
IC50 (second compound 0.316 µM): 80.6 nM
IC50 (second compound 1 µM): 88.2 nM
SMILES: CCN1C(C(=O)NC23CCC(C(=O)O)(CC2)CC3)C(c2cccc(Cl)c2F)C2(C(=O)Nc3cc(Cl)ccc32)C12CCCCC2 (configuration not stated) + CNC(C)C(=O)NC1CN(S(=O)(=O)c2cccc(S(=O)(=O)N3CCC4CCC(C(=O)NC(c5ccccc5)c5ccccc5)N4C(=O)C(NC(=O)C(C)NC)C3)c2)CCC2CCC(C(=O)NC(c3ccccc3)c3ccccc3)N2C1=O
viability, T/C (second compound 0.00316 µM, first compound 0.00949 µM): 109%
viability, T/C (second compound 0.00316 µM, first compound 0.03 µM): 108%
viability, T/C (second compound 0.00316 µM, first compound 0.0949 µM): 41.7%
viability, T/C (second compound 0.00316 µM, first compound 0.3 µM): 45.3%
viability, T/C (second compound 0.00316 µM, first compound 0.949 µM): 49.6%
viability, T/C (second compound 0.00316 µM, first compound 3 µM): 45.4%
viability, T/C (second compound 0.01 µM, first compound 0.00949 µM): 108%
viability, T/C (second compound 0.01 µM, first compound 0.03 µM): 104%
viability, T/C (second compound 0.01 µM, first compound 0.0949 µM): 41.6%
viability, T/C (second compound 0.01 µM, first compound 0.3 µM): 44%
viability, T/C (second compound 0.01 µM, first compound 0.949 µM): 54.3%
viability, T/C (second compound 0.01 µM, first compound 3 µM): 41.1%
viability, T/C (second compound 0.0316 µM, first compound 0.00949 µM): 99.2%
viability, T/C (second compound 0.0316 µM, first compound 0.03 µM): 101%
viability, T/C (second compound 0.0316 µM, first compound 0.0949 µM): 53.5%
viability, T/C (second compound 0.0316 µM, first compound 0.3 µM): 50%
viability, T/C (second compound 0.0316 µM, first compound 0.949 µM): 48.7%
viability, T/C (second compound 0.0316 µM, first compound 3 µM): 42%
viability, T/C (second compound 0.1 µM, first compound 0.00949 µM): 111%
viability, T/C (second compound 0.1 µM, first compound 0.03 µM): 78.2%
viability, T/C (second compound 0.1 µM, first compound 0.0949 µM): 51.1%
viability, T/C (second compound 0.1 µM, first compound 0.3 µM): 36.3%
viability, T/C (second compound 0.1 µM, first compound 0.949 µM): 52.8%
viability, T/C (second compound 0.1 µM, first compound 3 µM): 41.1%
viability, T/C (second compound 0.316 µM, first compound 0.00949 µM): 97.5%
viability, T/C (second compound 0.316 µM, first compound 0.03 µM): 89.5%
viability, T/C (second compound 0.316 µM, first compound 0.0949 µM): 43.4%
viability, T/C (second compound 0.316 µM, first compound 0.3 µM): 41.2%
viability, T/C (second compound 0.316 µM, first compound 0.949 µM): 44.9%
viability, T/C (second compound 0.316 µM, first compound 3 µM): 44.1%
viability, T/C (second compound 1 µM, first compound 0.00949 µM): 89.8%
viability, T/C (second compound 1 µM, first compound 0.03 µM): 83.4%
viability, T/C (second compound 1 µM, first compound 0.0949 µM): 47.5%
viability, T/C (second compound 1 µM, first compound 0.3 µM): 43.5%
viability, T/C (second compound 1 µM, first compound 0.949 µM): 60.1%
viability, T/C (second compound 1 µM, first compound 3 µM): 39.5%
